Reference: the NIST ThermoML archive (doi:10.1021/je400246s)
Numbers after ± are expanded uncertainties.

What was measured:
[1] = Molar enthalpy of transition or fusion; settings: Crystal; DSC
[2] = Crystal; DTA

O=C1c2ccccc2C(=O)c2c(Cl)cccc21 [1-chloroanthraquinone]
Molar enthalpy of transition or fusion [1]: 6.99 ± 0.454 kcal/mol | Normal melting temperature [2]: 162.1 ± 1.1 °C

O=C(O)c1cccc(Cl)c1C(=O)c1ccccc1 [2-benzoyl-3-chlorobenzoic acid]
Molar enthalpy of transition or fusion [1]: 8.49 ± 0.526 kcal/mol | Normal melting temperature [2]: 233.2 ± 1.1 °C
